In US6339098B1, “2,1-benzisothiazoline 2,2-dioxides” (American Home Products Corporation, priority 1999, dated 2002):

Molecular target: T1, human PR (hPR-B) (Homo sapiens, UniProt P06401)
T1 construct: expressed in transfected cells; host or cells: CV-1 cells (electroporation with pLEM-hPR-B and pGL3-2xPRE-luciferase)
T1 sequence (P06401 1-933): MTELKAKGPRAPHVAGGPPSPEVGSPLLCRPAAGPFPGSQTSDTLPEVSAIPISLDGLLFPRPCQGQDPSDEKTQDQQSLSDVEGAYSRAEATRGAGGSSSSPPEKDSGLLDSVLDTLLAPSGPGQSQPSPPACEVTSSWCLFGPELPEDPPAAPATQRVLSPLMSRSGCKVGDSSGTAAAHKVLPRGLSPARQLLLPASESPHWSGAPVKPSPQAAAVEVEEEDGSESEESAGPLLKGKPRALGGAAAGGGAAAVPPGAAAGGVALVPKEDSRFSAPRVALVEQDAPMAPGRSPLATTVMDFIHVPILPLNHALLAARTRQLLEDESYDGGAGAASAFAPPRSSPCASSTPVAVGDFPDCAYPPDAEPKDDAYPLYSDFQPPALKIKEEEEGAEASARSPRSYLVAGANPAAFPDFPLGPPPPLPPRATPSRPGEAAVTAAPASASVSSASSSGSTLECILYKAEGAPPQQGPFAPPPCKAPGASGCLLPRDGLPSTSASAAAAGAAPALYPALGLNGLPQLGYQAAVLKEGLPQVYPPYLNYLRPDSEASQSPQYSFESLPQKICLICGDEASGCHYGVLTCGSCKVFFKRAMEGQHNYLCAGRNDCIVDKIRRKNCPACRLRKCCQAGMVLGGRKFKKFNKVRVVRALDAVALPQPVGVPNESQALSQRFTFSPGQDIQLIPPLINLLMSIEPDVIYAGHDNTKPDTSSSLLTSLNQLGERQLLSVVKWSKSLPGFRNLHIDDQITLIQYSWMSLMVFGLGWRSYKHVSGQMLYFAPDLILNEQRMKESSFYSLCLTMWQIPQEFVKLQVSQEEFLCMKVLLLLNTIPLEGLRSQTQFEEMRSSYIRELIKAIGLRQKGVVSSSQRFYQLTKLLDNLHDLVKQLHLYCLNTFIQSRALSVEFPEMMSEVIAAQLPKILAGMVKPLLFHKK
Test: PRE-luciferase reporter activity in CV-1 cells co-transfected with human PR and PRE-luciferase plasmids (antiprogestational activity)
Format: cell-based
Details: CV-1 cells co-transfected with hPR-B and PRE-luciferase; in the presence of 3 nM progesterone; 24 h treatment; read-out: IC50 (concentration giving half-maximal decrease in 3 nM progesterone induced PRE-luciferase activity)
Experimental: The procedure used and results obtained are described in Example 2 below.
Growth medium: DMEM (BioWhittaker) containing 10% (v/v) fetal bovine serum (heat inactivated), 0.1 mM MEM non-essential amino acids, 100 U/ml penicillin, […] streptomycin, and 2 mM GlutaMax (GIBCO, BRL).
Experimental medium: DMEM (BioWhittaker), phenol red-free, containing 10% (v/v) charcoal-stripped fetal bovine serum (heat-inactivated), 0.1 mM MEM non-essential amino acids, 100 U/ml penicillin, […] streptomycin, and 2 mM GlutaMax (GIBCO, BRL).
Stock CV-1 cells were maintained in growth medium. Co-transfection was done using 1.2×10^7 cells, 5 mg pLEM plasmid with hPR-B inserted at Sph1 and BamH1 sites, 10 mg pGL3 plasmid with two PREs upstream of the luciferase sequence, and 50 mg sonicated calf thymus DNA as carrier DNA in […]. Electroporation was carried out at 260 V and […] in a Biorad Gene Pulser II. After electroporation, cells were resuspended in growth medium and plated in 96-well plate at 40,000 cells/well in […]. Following overnight incubation, the medium was changed to experimental medium Cells were then treated with reference or test compounds in experimental medium. Compounds were tested for antiprogestational activity in the presence of 3 nM progesterone. […] Luciferase activity was measured using luciferase reagents from Promega. […]

IC50: 900 nM
SMILES: O=S1(=O)Nc2ccc(-c3cccc(Cl)c3)cc2C12CCCCC2 [Example 1]
